Measured values from patent US8952024B2, “Herbicidal pyrimidone derivatives” (E I du Pont de Nemours and Company, priority 2009, dated 2015).

Tests used:
Assay type in all cases: in vivo
[1] = test system: nightshade (eastern black nightshade, Solanum ptycanthum); assay: Test B pre-/postemergence plant response; settings: Preemergence; for Nightshade plant response rating: 125 g ai/ha
Outline: (§1)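 Compound in solvent + surfactant applied pre-em (loam/sand) or post-em (plants 2–18 cm, peat medium); greenhouse hold 13–15 days; visual 0–100 control score.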

[2] = test system: sunflower (common oilseed sunflower, Helianthus annuus); assay: Test B pre-/postemergence plant response; settings: Preemergence; for Sunflower plant response rating: 125 g ai/ha
Outline: as §1

[3] = test system: galium (catchweed bedstraw, Galium aparine); assay: Test B pre-/postemergence plant response; settings: Preemergence; for Galium plant response rating: 125 g ai/ha
Outline: as §1

[4] = test system: morningglory (Ipomoea spp.); assay: Test A pre-/postemergence plant response
Outline: (§2)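 Seeds planted in loam soil/sand blend; test chemicals in non-phytotoxic solvent mixture with surfactant applied as directed soil spray preemergence and, concurrently, postemergence to plants 2–10 cm tall at one- to two-leaf stage. Greenhouse ~10 days; visual injury vs untreated controls, 0 (no effect) to 100 (complete control).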

[5] = test system: giant foxtail (Setaria faberii); assay: Test A pre-/postemergence plant response
Outline: as §2

corn (Zea mays) = assay: Test A pre-/postemergence plant response
Outline: as §2

[6] = test system: velvetleaf (Abutilon theophrasti); assay: Test A pre-/postemergence plant response
Outline: as §2

[7] = test system: large crabgrass (Digitaria sanguinalis); assay: Test A pre-/postemergence plant response
Outline: as §2

[8] = test system: wheat (Triticum aestivum); assay: Test A pre-/postemergence plant response
Outline: as §2

[9] = test system: goosegrass (Eleusine indica); assay: Test B pre-/postemergence plant response; settings: Preemergence, 62 g ai/ha; scale 0 to 100, 0 no effect, 100 complete control
[10] = test system: canarygrass (Phalaris minor); assay: Test B postemergence plant response; settings: Postemergence; for Canarygrass plant response rating: 250 g ai/ha, scale 0 to 100
Outline: (§3)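 Plants grown in peat/vermiculite medium were sprayed postemergence at 2–18 cm height (1- to 4-leaf stage). After 13–15 days in the greenhouse, response was rated visually against untreated controls on a 0–100 scale (0 no effect, 100 complete control).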

[11] = test system: windgrass (Apera spica-venti); assay: Test B postemergence plant response; settings: Postemergence, scale 0 (no effect) to 100 (complete control)
Outline: as §3

[12] = test system: winter barley (Hordeum vulgare); assay: Test B postemergence plant response; settings: Postemergence; for Barley plant response rating: 250 g ai/ha, scale 0 to 100
Outline: as §3

[13] = test system: chickweed (Stellaria media); assay: Test B postemergence plant response; settings: Postemergence; for Chickweed plant response rating: 250 g ai/ha, scale 0 to 100
Outline: as §3

[14] = 31 g ai/ha, scale 0 to 100 (0 no effect, 100 complete control)
[15] = 62 g ai/ha, scale 0 to 100, 0 no effect, 100 complete control
[16] = Postemergence, 125 g ai/ha, visual injury, 0 to 100 scale (0 no effect, 100 complete control), approx. ten days
[17] = Postemergence, 500 g ai/ha, 0 to 100 scale, 0 = no effect, 100 = complete control, approx. ten days
[18] = Preemergence, 125 g ai/ha, 0 to 100 scale, 0 = no effect, 100 = complete control
[19] = Preemergence, 500 g ai/ha, visual injury, 0 to 100 scale (0 no effect, 100 complete control), approx. ten days
[20] = 62 g ai/ha, scale 0 (no effect) to 100 (complete control), 13 to 15 days
[21] = 125 g ai/ha, visual rating after 13 to 15 days, scale 0 (no effect) to 100 (complete control)
[22] = 125 g ai/ha, visual rating after 13 to 15 days

O=C1CCCC(O)=C1C(=O)c1cnc(-c2cccc(Cl)c2)n(-c2ccccc2)c1=O [Compound 34]
Plant response rating, Nightshade ([1]; 250 g ai/ha, 0 to 100 scale): 100
Plant response rating, Nightshade [1, 14]: 55
Plant response rating, Nightshade [1, 15]: 95
Nightshade plant response rating ([1]; 0 to 100 scale): 100
Plant response rating, Sunflower ([2]; 250 g ai/ha, 0 to 100 scale): 90
Plant response rating, Sunflower [2, 14]: 55
Plant response rating, Sunflower [2, 15]: 70
Sunflower plant response rating ([2]; 0 to 100 scale): 80
Plant response rating, Galium ([3]; 250 g ai/ha, 0 to 100 scale): 98
Plant response rating, Galium [3, 14]: 10
Plant response rating, Galium [3, 15]: 50
Galium plant response rating ([3]; 0 to 100 scale): 90
Morningglory plant response rating [4, 16]: 80
Plant response rating, Morningglory [4, 17]: 100
Plant response rating, Morningglory [4, 18]: 10
Plant response rating, Morningglory [4, 19]: 60
Foxtail, Giant plant response rating [5, 16]: 90
Plant response rating, Foxtail, Giant [5, 17]: 100
Plant response rating, Foxtail, Giant [5, 18]: 60
Plant response rating, Foxtail, Giant [5, 19]: 100
Corn plant response rating (corn (Zea mays); [16]): 0
Plant response rating, Corn (corn (Zea mays); [17]): 30
Plant response rating, Corn (corn (Zea mays); [18]): 0
Plant response rating, Corn (corn (Zea mays); [19]): 0
Velvetleaf plant response rating [6, 16]: 100
Plant response rating, Velvetleaf [6, 17]: 100
Plant response rating, Velvetleaf [6, 18]: 50
Plant response rating, Velvetleaf [6, 19]: 100
Crabgrass, Large plant response rating [7, 16]: 90
Plant response rating, Crabgrass, Large [7, 17]: 100
Plant response rating, Crabgrass, Large [7, 18]: 90
Plant response rating, Crabgrass, Large [7, 19]: 100
Wheat plant response rating [8, 16]: 0
Plant response rating, Wheat [8, 17]: 30
Plant response rating, Wheat [8, 18]: 0
Plant response rating, Wheat [8, 19]: 0
Plant response rating, Goosegrass [9]: 100
Plant response rating, Canarygrass [10, 14]: 5
Plant response rating, Canarygrass [10, 20]: 50
Plant response rating, Canarygrass [10, 21]: 50
Canarygrass plant response rating [10]: 50
Plant response rating, Windgrass ([11]; 62 g ai/ha, 13 to 15 days): 40
Plant response rating, Windgrass [11, 22]: 50
Plant response rating, Barley [12, 14]: 0
Plant response rating, Barley [12, 20]: 30
Plant response rating, Barley [12, 21]: 30
Barley plant response rating [12]: 30
Plant response rating, Chickweed [13, 14]: 50
Plant response rating, Chickweed [13, 20]: 75
Plant response rating, Chickweed [13, 21]: 98
Chickweed plant response rating [13]: 100

O=C1CCCC(O)=C1C(=O)c1cnc(-c2ccccc2)n(-c2ccccc2Br)c1=O [Compound 37]
Plant response rating, Nightshade ([1]; 250 g ai/ha, 0 to 100 scale): 85
Plant response rating, Nightshade [1, 14]: 0
Plant response rating, Nightshade [1, 15]: 40
Nightshade plant response rating ([1]; 0 to 100 scale): 80
Plant response rating, Sunflower ([2]; 250 g ai/ha, 0 to 100 scale): 90
Plant response rating, Sunflower [2, 14]: 0
Sunflower plant response rating ([2]; 0 to 100 scale): 45
Plant response rating, Galium ([3]; 250 g ai/ha, 0 to 100 scale): 100
Plant response rating, Galium [3, 14]: 0
Plant response rating, Galium [3, 15]: 10
Galium plant response rating ([3]; 0 to 100 scale): 30
Morningglory plant response rating [4, 16]: 80
Plant response rating, Morningglory [4, 17]: 100
Plant response rating, Morningglory [4, 18]: 0
Plant response rating, Morningglory [4, 19]: 30
Foxtail, Giant plant response rating [5, 16]: 70
Plant response rating, Foxtail, Giant [5, 17]: 90
Plant response rating, Foxtail, Giant [5, 18]: 10
Plant response rating, Foxtail, Giant [5, 19]: 50
Corn plant response rating (corn (Zea mays); [16]): 0
Plant response rating, Corn (corn (Zea mays); [17]): 40
Plant response rating, Corn (corn (Zea mays); [18]): 0
Plant response rating, Corn (corn (Zea mays); [19]): 0
Velvetleaf plant response rating [6, 16]: 100
Plant response rating, Velvetleaf [6, 17]: 100
Plant response rating, Velvetleaf [6, 18]: 50
Plant response rating, Velvetleaf [6, 19]: 90
Crabgrass, Large plant response rating [7, 16]: 70
Plant response rating, Crabgrass, Large [7, 17]: 100
Plant response rating, Crabgrass, Large [7, 18]: 10
Plant response rating, Crabgrass, Large [7, 19]: 50
Wheat plant response rating [8, 16]: 0
Plant response rating, Wheat [8, 17]: 0
Plant response rating, Wheat [8, 18]: 0
Plant response rating, Wheat [8, 19]: 0
Plant response rating, Goosegrass [9]: 0
Plant response rating, Canarygrass [10, 14]: 0
Plant response rating, Canarygrass [10, 20]: 5
Plant response rating, Canarygrass [10, 21]: 10
Canarygrass plant response rating [10]: 30
Plant response rating, Windgrass ([11]; 62 g ai/ha, 13 to 15 days): 30
Plant response rating, Windgrass [11, 22]: 50
Plant response rating, Barley [12, 14]: 0
Plant response rating, Barley [12, 20]: 0
Plant response rating, Barley [12, 21]: 0
Barley plant response rating [12]: 0
Plant response rating, Chickweed [13, 14]: 80
Plant response rating, Chickweed [13, 20]: 80
Plant response rating, Chickweed [13, 21]: 85
Chickweed plant response rating [13]: 100
